Source: patent US8802849B2, “Tricyclic benzo[4,5]thieno-[2,3-d]pyrimidine-4-yl-amin derivatives, their salts, process for producing the compounds and their pharmaceutical use” (Vichem Chemie Kutató Kft., priority 2008, dated 2014)

How the values were obtained:
c-Raf = c-Raf (Homo sapiens, UniProt P04049); experiment: c-Raf kinase assay; format: biochemical; conditions: 10 μM compound; read-out: c-Raf percent of inhibition
Method: (§1) General description of the kinase assays: the kinase activity was assayed in 96-well microtiter plates at a final compound concentration of 10 μM in a total volume of 50 μl. Compounds were dissolved in 100% DMSO to prepare a 10 mM stock solution and than diluted with buffer to reach a 10 μM (or the required) final concentration. The kinase concentration was used to yield 10% ATP turn over. The ATP concentration was used at the KmATP and 12.5 μCi/ml adenosine 5′[γ-33P]triphosphate. The substrate concentration was used at 5 fold excess over the Km for the substrate. The reaction was incubated for 1 hour at room temperature and stopped by addition of 10 μl 50 mM EDTA. The assay was transferred to a 96 well MAPH filter plate (Millipore). The radioactivity was counted on a Microbeta microplate counter.

MAPK-ERK1 = MAPK-ERK1 (Homo sapiens, UniProt P27361); experiment: MAPK-ERK1 kinase assay; format: biochemical; conditions: 10 μM compound; read-out: MAPK-ERK1 percent of inhibition
Method: as §1

P56Lck = P56Lck (Homo sapiens, UniProt P06239); experiment: P56Lck kinase assay; format: biochemical; conditions: 10 μM compound; read-out: P56Lck percent of inhibition
Method: as §1

c-Src = c-Src (Homo sapiens, UniProt P12931); experiment: c-Src kinase assay; format: biochemical; conditions: 10 μM compound; read-out: c-Src percent of inhibition
c-Src, sequence (P12931 whole entry, species assumed): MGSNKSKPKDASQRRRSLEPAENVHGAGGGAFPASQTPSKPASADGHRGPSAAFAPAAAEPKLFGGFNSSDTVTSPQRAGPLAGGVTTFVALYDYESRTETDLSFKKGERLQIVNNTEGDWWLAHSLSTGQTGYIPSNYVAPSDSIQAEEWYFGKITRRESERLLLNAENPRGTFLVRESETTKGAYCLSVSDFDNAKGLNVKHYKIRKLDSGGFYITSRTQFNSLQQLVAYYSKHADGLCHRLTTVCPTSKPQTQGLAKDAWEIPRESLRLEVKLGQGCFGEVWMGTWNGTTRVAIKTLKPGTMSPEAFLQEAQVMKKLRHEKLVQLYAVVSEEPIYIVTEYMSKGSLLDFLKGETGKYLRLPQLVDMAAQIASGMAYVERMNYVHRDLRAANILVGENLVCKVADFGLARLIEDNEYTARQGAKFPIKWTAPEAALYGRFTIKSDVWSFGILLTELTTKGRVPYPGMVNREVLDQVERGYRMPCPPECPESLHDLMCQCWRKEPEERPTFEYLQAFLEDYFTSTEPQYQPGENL
Method: as §1

CDK2/CycA = CDK2/CycA (Homo sapiens, UniProt P24941); experiment: CDK2/CycA kinase assay; format: biochemical; conditions: 10 μM compound; read-out: CDK2/CycA percent of inhibition
Method: as §1

Jnk1a1 = Jnk1a1 (Homo sapiens, UniProt P45983); experiment: Jnk1a1 kinase assay; format: biochemical; conditions: 10 μM compound; read-out: Jnk1a1 percent of inhibition
Method: as §1

ROCK2 = ROCK2 (Homo sapiens, UniProt O75116); experiment: ROCK2 kinase assay; format: biochemical; conditions: 10 μM compound; read-out: ROCK2 percent of inhibition
Method: as §1

CK1-alpha = CK1-alpha (Homo sapiens, UniProt P48729); experiment: CK1-alpha kinase assay; format: biochemical; conditions: 10 μM compound; read-out: CK1-alpha percent of inhibition
CK1-alpha, sequence (P48729 whole entry): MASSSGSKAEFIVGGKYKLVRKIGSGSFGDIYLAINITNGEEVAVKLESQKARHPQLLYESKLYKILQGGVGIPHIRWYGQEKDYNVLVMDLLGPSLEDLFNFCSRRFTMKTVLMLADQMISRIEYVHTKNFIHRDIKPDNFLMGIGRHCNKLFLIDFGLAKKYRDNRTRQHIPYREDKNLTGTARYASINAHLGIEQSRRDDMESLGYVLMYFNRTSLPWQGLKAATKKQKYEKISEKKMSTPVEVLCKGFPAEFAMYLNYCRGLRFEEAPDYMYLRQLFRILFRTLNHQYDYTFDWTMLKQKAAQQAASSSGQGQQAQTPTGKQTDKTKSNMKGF
Method: as §1

EGFR = EGFR (Homo sapiens, UniProt P00533); experiment: EGFR kinase assay (33P-ATP filter plate); format: biochemical; conditions: 10 μM compound; read-out: EGFR percent of inhibition
Method: as §1

InsR = InsR (Homo sapiens, UniProt P06213); experiment: InsR kinase assay; format: biochemical; conditions: 10 μM compound; read-out: InsR percent of inhibition
InsR, sequence (P06213 28-1382, species assumed): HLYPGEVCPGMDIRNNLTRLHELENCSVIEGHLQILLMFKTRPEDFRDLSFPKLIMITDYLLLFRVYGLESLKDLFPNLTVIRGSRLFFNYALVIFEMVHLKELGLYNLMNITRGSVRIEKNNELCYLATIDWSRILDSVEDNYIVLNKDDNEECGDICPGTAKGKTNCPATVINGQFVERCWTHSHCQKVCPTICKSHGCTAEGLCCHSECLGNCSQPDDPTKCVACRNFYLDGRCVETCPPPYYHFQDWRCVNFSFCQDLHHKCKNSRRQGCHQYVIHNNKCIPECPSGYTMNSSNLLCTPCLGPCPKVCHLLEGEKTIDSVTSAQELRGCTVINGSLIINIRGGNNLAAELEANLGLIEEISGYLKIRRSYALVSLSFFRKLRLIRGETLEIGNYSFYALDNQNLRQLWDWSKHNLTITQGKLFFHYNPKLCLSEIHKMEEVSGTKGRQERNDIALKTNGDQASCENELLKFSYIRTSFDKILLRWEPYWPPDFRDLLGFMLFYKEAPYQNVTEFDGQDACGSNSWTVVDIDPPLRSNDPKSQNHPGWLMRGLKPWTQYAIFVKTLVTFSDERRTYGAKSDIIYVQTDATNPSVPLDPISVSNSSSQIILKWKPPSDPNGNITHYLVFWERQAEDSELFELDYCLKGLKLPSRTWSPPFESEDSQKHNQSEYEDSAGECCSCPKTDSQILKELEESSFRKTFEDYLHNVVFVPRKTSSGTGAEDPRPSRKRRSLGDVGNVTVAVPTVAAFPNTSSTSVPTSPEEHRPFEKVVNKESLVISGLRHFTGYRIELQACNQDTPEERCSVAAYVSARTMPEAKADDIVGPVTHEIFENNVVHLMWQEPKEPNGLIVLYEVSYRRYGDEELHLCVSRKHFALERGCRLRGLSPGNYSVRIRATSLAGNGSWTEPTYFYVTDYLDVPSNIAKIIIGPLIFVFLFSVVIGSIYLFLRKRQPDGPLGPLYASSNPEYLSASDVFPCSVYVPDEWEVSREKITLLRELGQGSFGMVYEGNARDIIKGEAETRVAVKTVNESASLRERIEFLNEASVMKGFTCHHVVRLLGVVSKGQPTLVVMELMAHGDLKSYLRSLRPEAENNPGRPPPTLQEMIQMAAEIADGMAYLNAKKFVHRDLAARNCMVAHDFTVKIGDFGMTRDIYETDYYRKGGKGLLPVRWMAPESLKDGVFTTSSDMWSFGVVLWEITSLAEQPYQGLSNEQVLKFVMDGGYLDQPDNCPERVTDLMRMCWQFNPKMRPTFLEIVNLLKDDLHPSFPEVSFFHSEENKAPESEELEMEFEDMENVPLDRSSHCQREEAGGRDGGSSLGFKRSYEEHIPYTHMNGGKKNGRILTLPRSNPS
Method: as §1

PDGFR-beta = PDGFR-beta (Homo sapiens, UniProt P09619); experiment: PDGFR-beta kinase assay; format: biochemical; conditions: 10 μM compound; read-out: PDGFR-beta percent of inhibition
Method: as §1

AKT1/PKBa = AKT1/PKBa (Homo sapiens, UniProt P31749); experiment: AKT1/PKBa kinase assay; format: biochemical; conditions: 10 μM compound; read-out: AKT1/PKBa percent of inhibition
AKT1/PKBa, sequence (P31749 whole entry): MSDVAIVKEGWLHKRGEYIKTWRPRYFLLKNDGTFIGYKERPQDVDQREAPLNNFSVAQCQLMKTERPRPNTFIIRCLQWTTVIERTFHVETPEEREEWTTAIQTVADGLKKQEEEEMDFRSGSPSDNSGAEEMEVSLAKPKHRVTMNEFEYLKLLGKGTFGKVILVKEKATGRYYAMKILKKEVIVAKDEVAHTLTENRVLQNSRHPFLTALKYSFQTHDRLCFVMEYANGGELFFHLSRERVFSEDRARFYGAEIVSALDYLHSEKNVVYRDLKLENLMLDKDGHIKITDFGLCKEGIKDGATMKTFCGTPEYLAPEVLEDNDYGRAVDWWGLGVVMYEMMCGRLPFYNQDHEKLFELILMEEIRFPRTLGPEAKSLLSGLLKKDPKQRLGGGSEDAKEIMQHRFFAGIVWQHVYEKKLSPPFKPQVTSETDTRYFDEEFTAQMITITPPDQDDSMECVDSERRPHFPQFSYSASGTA
Method: as §1

IKK-beta = target: T1, IKK-beta (Homo sapiens, UniProt O14920); experiment: IKK-beta kinase assay; format: biochemical; conditions: 10 μM compound; read-out: IKK-beta percent of inhibition
T1 sequence (O14920 1-756): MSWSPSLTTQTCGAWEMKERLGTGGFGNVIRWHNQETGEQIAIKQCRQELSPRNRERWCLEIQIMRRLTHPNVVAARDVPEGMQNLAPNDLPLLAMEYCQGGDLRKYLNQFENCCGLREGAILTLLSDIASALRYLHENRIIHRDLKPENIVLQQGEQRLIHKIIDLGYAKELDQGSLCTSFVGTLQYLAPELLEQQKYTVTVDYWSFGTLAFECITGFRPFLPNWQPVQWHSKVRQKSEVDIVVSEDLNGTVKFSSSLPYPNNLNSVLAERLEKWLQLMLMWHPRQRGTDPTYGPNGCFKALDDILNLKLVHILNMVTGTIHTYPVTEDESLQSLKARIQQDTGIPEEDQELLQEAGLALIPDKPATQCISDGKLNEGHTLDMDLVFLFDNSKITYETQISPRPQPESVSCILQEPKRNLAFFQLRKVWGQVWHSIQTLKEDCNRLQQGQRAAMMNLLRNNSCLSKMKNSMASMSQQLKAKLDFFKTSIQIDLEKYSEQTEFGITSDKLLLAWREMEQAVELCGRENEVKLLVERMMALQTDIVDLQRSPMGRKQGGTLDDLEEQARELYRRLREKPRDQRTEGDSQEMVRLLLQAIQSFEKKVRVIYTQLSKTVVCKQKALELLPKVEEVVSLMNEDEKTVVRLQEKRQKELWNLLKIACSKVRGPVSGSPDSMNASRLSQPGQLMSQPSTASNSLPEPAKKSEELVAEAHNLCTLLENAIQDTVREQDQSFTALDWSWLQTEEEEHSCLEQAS
Method: as §1

SRPK1 = SRPK1 (Homo sapiens, UniProt Q96SB4); experiment: SRPK1 kinase assay; format: biochemical; conditions: 10 μM compound; read-out: SRPK1 percent of inhibition
Method: as §1

Kit = Kit (Homo sapiens, UniProt P10721); experiment: Kit kinase assay; format: biochemical; conditions: 10 μM compound; read-out: Kit percent of inhibition
Method: as §1

cMet = cMet (Homo sapiens, UniProt P08581); experiment: cMet kinase assay; format: biochemical; conditions: 10 μM compound; read-out: cMet percent of inhibition
Method: as §1

RSK1 = RSK1 (Homo sapiens, UniProt Q15418); experiment: RSK1 kinase assay; format: biochemical; conditions: 10 μM compound; read-out: RSK1 percent of inhibition
RSK1, sequence (Q15418 whole entry, species assumed): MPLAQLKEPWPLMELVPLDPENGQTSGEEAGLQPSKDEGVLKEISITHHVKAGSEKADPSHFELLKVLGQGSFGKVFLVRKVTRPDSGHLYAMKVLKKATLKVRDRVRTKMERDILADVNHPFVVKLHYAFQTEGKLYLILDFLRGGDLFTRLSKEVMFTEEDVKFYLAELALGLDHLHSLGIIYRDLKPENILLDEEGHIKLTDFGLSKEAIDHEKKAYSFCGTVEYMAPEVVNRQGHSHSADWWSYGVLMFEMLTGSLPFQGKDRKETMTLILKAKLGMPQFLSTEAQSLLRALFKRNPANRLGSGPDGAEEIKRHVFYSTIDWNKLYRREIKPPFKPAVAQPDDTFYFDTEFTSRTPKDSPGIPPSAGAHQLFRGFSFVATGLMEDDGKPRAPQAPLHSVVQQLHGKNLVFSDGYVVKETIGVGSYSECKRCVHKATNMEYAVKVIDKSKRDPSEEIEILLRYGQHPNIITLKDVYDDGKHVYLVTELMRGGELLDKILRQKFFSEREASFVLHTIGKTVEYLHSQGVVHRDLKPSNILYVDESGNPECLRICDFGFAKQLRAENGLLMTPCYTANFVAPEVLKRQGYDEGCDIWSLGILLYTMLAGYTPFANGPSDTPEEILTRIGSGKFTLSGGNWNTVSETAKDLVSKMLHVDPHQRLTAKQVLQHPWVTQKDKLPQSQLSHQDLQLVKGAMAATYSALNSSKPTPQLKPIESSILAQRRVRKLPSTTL
Method: as §1

GSK-3beta = GSK-3beta (Homo sapiens, UniProt P49841); experiment: GSK-3beta kinase assay; format: biochemical; conditions: 10 μM compound; read-out: GSK-3beta percent of inhibition
GSK-3beta, sequence (P49841 whole entry, species assumed): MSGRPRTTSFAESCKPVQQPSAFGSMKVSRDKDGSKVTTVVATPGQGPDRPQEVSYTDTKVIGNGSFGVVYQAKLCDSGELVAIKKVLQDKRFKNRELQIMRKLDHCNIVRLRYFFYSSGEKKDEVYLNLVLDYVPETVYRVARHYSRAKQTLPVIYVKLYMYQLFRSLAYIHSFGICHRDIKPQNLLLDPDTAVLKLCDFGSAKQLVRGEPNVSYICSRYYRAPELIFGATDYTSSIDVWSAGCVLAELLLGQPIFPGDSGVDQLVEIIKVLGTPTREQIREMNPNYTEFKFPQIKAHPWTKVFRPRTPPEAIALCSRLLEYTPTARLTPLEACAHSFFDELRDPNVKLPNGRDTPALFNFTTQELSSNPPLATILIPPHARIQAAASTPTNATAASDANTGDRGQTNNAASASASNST
Method: as §1

P70S6K = P70S6K (Homo sapiens, UniProt P23443); experiment: P70S6K kinase assay; format: biochemical; conditions: 10 μM compound; read-out: P70S6K percent of inhibition
Method: as §1

Abl = Abl (Homo sapiens, UniProt P00519); experiment: Abl kinase assay; format: biochemical; conditions: 10 μM compound; read-out: Abl percent of inhibition
Abl, sequence (P00519 whole entry, species assumed): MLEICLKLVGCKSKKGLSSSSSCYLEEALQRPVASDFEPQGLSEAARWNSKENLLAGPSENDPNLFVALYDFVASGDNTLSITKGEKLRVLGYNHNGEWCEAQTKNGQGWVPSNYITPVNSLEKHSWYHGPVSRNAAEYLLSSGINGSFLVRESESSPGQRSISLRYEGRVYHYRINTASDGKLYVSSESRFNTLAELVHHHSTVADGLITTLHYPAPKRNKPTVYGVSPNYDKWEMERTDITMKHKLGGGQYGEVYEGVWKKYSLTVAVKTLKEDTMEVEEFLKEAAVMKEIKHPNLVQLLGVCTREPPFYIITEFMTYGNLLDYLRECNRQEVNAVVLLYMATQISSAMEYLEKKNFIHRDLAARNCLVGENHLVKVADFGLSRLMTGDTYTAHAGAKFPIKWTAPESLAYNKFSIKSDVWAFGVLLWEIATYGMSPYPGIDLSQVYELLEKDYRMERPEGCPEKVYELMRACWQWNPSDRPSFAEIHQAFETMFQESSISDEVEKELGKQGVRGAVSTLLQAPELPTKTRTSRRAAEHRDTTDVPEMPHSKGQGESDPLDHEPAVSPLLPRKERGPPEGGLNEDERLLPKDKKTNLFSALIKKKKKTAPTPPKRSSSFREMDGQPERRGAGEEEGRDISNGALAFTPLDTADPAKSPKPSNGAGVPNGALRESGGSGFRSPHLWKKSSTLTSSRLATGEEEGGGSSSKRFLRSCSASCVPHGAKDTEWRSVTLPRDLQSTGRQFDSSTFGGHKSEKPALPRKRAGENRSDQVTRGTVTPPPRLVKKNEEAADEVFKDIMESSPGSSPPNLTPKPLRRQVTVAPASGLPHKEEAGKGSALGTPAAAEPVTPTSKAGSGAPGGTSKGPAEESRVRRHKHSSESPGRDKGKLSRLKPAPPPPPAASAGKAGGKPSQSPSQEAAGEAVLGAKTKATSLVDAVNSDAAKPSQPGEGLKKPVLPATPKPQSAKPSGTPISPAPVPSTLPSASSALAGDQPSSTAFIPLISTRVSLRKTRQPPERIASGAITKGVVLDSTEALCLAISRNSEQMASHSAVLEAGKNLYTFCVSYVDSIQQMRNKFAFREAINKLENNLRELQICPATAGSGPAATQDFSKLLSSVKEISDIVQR
Method: as §1

Row | Compound | inhibition at 10 µM (c-Raf) | inhibition at 10 µM (MAPK-ERK1) | inhibition at 10 µM (P56Lck) | inhibition at 10 µM (c-Src) | inhibition at 10 µM (CDK2/CycA) | inhibition at 10 µM (Jnk1a1) | inhibition at 10 µM (ROCK2) | inhibition at 10 µM (CK1-alpha) | inhibition at 10 µM (EGFR) | inhibition at 10 µM (InsR) | inhibition at 10 µM (PDGFR-beta) | inhibition at 10 µM (AKT1/PKBa) | inhibition at 10 µM (IKK-beta) | inhibition at 10 µM (SRPK1) | inhibition at 10 µM (Kit) | inhibition at 10 µM (cMet) | melting point | inhibition at 10 µM (RSK1) | inhibition at 10 µM (GSK-3beta) | inhibition at 10 µM (P70S6K) | other results
1 | FC(F)(F)c1cccc(Nc2nc(C3CC3)nc3sc4c(c23)CCCC4)c1 [Compound 11, (2-Cyclopropyl-5,6,7,8-tetrahydro-benzo[4,5]thieno[2,3-d]pyrimidin-4-yl)-(3-trifluoromethyl-phenyl)-amine] | 2% | 4% | -7% | 8% | -5% | -3% | 6% | -1% | 4% | -6% | -4% | 1% | 4% | -5% | -1% | 3% | 204.8 °C | -14% | -3% | 20% | inhibition at 10 µM (Abl): 0%
2 | Nc1cccc(Nc2nc(C3CC3)nc3sc4c(c23)CCCC4)c1 [Compound 12, N-(2-Cyclopropyl-5,6,7,8-tetrahydro-benzo[4,5]thieno[2,3-d]pyrimidin-4-yl)-benzene-1,3-diamine] | -3% | 0% | 9% | 4% | -8% | -5% | 5% | -3% | 5% | 22% | -11% | -13% | 9% | 21% | -8% | -6% | 185.9 °C | 0% | 0% | 9% | inhibition at 10 µM (Abl): -13%
3 | O=[N+]([O-])c1cccc(Nc2nc(C3CC3)nc3sc4c(c23)CCCC4)c1 [Compound 13, (2-Cyclopropyl-5,6,7,8-tetrahydro-benzo[4,5]thieno[2,3-d]pyrimidin-4-yl)-(3-nitro-phenyl)-amine] | -7% | -6% | 12% | 1% | -18% | -9% | 3% | 0% | 26% | 9% | -14% | -2% | -9% | 11% | -12% | -4% | 211.7 °C | -18% | -6% | 9% | inhibition at 10 µM (Abl): -15%
4 | N#Cc1cccc(Nc2nc(C3CC3)nc3sc4c(c23)CCCC4)c1 [Compound 14, 3-(2-Cyclopropyl-5,6,7,8-tetrahydro-benzo[4,5]thieno[2,3-d]pyrimidin-4-ylamino)-benzonitrile] | -5% | -4% | 6% | 5% | -3% | -4% | 12% | 0% | 72% | -3% | -4% | -1% | -6% | 11% | -12% | -7% | 176.3 °C | -4% | 2% | 2% | inhibition at 10 µM (Abl): -3%
5 | COc1cccc(Nc2nc(C3CC3)nc3sc4c(c23)CCCC4)c1 [Compound 15, (2-Cyclopropyl-5,6,7,8-tetrahydro-benzo[4,5]thieno[2,3-d]pyrimidin-4-yl)-(3-methoxy-phenyl)-amine] | -13% | 6% | -5% | 5% | -14% | -3% | 9% | 5% | 9% | 23% | -7% | -9% | 12% | 12% | 1% | -6% | 186.7 °C | 8% | -6% | 4% | inhibition at 10 µM (Abl): 12%
